The values below come from patent US20120003154A1, “ARYLOXYANILIDE DERIVATIVES” (priority 2009, published 2012).

Read-outs that look alike come from different tables or passages of the source.

One assay has as its target T1, Wistar rat heart PBR (Rattus norvegicus, UniProt P16257).
T1 construct: PK-11195; from tissue; host or cells: Wistar rat heart
The assay is described as follows: In vitro potency assay (competition binding against [3H]PK-11195).

The next assay deals with PBR. The following applies: Wilson et al Nuc. Med. Biol. 2008; cited from earlier work.

Method for Wistar rat heart PBR: Affinity for PBR was screened using a method adapted from Le Fur et al (Life Sci. 1983; USA 33: 449-57).
Each test compound (dissolved in 50 mM Tris-HCl, pH 7.4, 10 mM MgCl2 containing 1% DMSO) competed for binding to Wistar rat heart PBR against 0.3 nM [^3H] […] The reaction was carried out in 50 mM Tris-HCl, pH 7.4 10 mM MgCl2 for 15 minutes at 25° C.

Regarding `CC(=O)N(Cc1ccccc1OCC[18F])c1cccnc1Oc1ccccc1` [Imaging Agent 1], the “measured potency for PBR compared with [18F]-FE-PBR28” value at Wistar rat heart PBR (relative to FE-PBR28) was “two orders of magnitude less”.

As a reminder, the Ki is the equilibrium dissociation constant of an inhibitor or competing ligand from its target. On to `CC(=O)N(Cc1ccccc1OCCF)c1cccnc1Oc1ccccc1` [Non-radioactive imaging agent 1, N-[2(2-fluoroethoxy)benzyl]-N-(2-phenoxypyridin-3-yl)acetamide], for which the inhibition constant Ki at Wistar rat heart PBR (read-out: Ki) is 4.24 nM.

The compound `COc1ncccc1CN(C(=O)CF)c1ccccc1Oc1ccccc1` [Non-radioactive imaging agent 18, 2-Flouro-N-(2-methoxy-pyridin-3-ylmethyl)-N-(2-phenoxy-phenyl)-acetamide] displayed a Ki on Wistar rat heart PBR of 3.77 nM.

Take `CC(=O)N(Cc1cccnc1OCCF)c1ccccc1Oc1ccccc1` [Non-radioactive imaging agent 19, N-[2-(2-Fluoro-ethoxy)-pyridin-3-ylmethyl]-N-(2-phenoxy-phenyl)-acetamide]: the Ki on Wistar rat heart PBR (read-out: Ki) came to 1.02 nM.

On to `CC(=O)N(Cc1ccccc1OCC[18F])c1cnccc1Oc1ccccc1` [[^18F]-FE-PBR28], for which the “affinity for PBR in vitro” value in the assay with PBR is reported as “subnanomolar”.
